Calls of active or inactive are those of the source.
Assays:
[1] = molecular target: T1, Long-chain-fatty-acid--AMP ligase FadD28 (Mycobacterium tuberculosis, UniProt P9WQ59); assay: Fluorescence polarization aasay to screen for inhibitors that compete for the binding of FadD28 to a bisubstrate Measured in Biochemical System Using Plate Reader - 2147-01_Inhibitor_Dose_CherryPick_Activity.; format: functional, Mycobacterium tuberculosis H37Rv
T1 sequence (P9WQ59 whole entry): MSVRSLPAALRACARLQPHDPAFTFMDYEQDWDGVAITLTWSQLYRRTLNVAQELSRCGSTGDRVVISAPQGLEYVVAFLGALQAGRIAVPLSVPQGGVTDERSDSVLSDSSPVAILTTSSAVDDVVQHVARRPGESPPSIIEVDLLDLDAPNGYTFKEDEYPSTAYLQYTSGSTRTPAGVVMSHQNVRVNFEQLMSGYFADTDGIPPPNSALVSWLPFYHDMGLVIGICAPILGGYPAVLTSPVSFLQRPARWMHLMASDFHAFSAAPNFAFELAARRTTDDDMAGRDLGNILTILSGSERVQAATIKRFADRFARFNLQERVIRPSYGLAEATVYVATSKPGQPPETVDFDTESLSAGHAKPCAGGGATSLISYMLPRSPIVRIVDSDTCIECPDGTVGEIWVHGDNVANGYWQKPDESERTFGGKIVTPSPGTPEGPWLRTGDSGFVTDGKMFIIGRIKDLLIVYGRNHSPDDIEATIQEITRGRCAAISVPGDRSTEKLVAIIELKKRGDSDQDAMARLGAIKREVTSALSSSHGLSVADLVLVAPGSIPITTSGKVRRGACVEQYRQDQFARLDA

[2] = off-target signal loss in HeLa-CEM21 co-culture – HeLa F-luc CTL cells, cherry-picked, counter-screen for HIV-1 Env fusion inhibitor project, dose response (AID 652040); format: functional, cell-based;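 also: potency for signal decrease marking cytotoxic or nonspecific inhibition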
[3] = molecular target: T2, Rac GTPase-activating protein 1 (Homo sapiens, UniProt Q9H0H5); assay: MgcRacGAP GTPase-activating activity inhibitors, confirmation, biochemical, ADP Hunter fluorescence, primary and confirmatory (AID 624330); format: functional
T2 sequence (Q9H0H5 whole entry): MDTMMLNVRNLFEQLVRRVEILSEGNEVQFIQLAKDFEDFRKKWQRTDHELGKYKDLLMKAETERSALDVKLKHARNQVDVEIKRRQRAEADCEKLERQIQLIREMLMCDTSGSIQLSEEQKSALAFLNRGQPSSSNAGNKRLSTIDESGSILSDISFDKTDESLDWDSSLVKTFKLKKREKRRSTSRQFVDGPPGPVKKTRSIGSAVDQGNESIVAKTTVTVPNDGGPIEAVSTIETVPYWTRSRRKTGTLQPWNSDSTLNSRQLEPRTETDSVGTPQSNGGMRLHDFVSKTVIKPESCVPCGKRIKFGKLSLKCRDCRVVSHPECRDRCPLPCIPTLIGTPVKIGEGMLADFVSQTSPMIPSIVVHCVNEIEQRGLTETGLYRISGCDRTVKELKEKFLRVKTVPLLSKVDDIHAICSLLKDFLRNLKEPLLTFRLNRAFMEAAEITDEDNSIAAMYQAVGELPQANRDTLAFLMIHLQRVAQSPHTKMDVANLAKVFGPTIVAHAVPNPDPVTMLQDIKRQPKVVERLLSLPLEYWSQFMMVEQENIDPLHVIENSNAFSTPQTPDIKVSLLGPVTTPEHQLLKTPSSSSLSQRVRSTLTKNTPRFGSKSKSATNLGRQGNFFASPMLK

Beta-galactosidase = Beta-galactosidase (Escherichia coli, UniProt Q8VNN2); assay: Dose response counterscreen for EBI2 assay utilizing the enzyme, b-galactosidase.; format: functional
Sequence of Beta-galactosidase (Q8VNN2 whole entry, the tested form may be a part): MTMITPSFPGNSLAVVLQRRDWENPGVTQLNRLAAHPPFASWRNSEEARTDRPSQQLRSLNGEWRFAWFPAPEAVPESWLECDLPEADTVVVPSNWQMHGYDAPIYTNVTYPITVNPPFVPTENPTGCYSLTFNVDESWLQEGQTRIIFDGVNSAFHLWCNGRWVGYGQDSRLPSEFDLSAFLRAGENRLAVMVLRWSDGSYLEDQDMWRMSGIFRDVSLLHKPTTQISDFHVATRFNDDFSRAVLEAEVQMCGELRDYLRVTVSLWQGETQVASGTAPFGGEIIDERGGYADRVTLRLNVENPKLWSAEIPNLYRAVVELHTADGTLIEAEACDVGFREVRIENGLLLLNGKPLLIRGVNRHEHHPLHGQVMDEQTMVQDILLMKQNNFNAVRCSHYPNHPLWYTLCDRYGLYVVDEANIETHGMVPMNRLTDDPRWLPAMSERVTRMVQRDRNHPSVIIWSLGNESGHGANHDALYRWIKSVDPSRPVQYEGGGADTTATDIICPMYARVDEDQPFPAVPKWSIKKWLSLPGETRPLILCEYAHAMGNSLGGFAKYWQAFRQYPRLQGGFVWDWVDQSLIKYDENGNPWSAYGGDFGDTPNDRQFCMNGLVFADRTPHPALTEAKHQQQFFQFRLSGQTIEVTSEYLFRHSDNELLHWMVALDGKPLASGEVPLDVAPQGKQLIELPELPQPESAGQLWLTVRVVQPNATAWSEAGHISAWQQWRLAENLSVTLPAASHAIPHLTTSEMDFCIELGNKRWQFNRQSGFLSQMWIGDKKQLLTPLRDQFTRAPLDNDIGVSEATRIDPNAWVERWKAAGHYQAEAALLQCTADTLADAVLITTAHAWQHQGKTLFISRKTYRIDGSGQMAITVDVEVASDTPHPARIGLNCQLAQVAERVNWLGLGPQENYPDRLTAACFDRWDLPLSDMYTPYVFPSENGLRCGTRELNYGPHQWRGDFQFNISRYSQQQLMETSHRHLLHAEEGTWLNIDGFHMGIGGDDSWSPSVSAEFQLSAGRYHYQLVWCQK

Fatty acid synthase [4] = molecular target: T3, Fatty acid synthase (Homo sapiens, UniProt P49327); assay: FAS thioesterase domain inhibitors, dose response, biochemical, endpoint fluorescence intensity, uHTS hits (AID 624327); format: functional;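 also: fluorescence from hydrolysis of an O-methyl fluorescein acyl ester substrate by the enzyme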
T3 sequence (P49327 whole entry, the tested form may be a part): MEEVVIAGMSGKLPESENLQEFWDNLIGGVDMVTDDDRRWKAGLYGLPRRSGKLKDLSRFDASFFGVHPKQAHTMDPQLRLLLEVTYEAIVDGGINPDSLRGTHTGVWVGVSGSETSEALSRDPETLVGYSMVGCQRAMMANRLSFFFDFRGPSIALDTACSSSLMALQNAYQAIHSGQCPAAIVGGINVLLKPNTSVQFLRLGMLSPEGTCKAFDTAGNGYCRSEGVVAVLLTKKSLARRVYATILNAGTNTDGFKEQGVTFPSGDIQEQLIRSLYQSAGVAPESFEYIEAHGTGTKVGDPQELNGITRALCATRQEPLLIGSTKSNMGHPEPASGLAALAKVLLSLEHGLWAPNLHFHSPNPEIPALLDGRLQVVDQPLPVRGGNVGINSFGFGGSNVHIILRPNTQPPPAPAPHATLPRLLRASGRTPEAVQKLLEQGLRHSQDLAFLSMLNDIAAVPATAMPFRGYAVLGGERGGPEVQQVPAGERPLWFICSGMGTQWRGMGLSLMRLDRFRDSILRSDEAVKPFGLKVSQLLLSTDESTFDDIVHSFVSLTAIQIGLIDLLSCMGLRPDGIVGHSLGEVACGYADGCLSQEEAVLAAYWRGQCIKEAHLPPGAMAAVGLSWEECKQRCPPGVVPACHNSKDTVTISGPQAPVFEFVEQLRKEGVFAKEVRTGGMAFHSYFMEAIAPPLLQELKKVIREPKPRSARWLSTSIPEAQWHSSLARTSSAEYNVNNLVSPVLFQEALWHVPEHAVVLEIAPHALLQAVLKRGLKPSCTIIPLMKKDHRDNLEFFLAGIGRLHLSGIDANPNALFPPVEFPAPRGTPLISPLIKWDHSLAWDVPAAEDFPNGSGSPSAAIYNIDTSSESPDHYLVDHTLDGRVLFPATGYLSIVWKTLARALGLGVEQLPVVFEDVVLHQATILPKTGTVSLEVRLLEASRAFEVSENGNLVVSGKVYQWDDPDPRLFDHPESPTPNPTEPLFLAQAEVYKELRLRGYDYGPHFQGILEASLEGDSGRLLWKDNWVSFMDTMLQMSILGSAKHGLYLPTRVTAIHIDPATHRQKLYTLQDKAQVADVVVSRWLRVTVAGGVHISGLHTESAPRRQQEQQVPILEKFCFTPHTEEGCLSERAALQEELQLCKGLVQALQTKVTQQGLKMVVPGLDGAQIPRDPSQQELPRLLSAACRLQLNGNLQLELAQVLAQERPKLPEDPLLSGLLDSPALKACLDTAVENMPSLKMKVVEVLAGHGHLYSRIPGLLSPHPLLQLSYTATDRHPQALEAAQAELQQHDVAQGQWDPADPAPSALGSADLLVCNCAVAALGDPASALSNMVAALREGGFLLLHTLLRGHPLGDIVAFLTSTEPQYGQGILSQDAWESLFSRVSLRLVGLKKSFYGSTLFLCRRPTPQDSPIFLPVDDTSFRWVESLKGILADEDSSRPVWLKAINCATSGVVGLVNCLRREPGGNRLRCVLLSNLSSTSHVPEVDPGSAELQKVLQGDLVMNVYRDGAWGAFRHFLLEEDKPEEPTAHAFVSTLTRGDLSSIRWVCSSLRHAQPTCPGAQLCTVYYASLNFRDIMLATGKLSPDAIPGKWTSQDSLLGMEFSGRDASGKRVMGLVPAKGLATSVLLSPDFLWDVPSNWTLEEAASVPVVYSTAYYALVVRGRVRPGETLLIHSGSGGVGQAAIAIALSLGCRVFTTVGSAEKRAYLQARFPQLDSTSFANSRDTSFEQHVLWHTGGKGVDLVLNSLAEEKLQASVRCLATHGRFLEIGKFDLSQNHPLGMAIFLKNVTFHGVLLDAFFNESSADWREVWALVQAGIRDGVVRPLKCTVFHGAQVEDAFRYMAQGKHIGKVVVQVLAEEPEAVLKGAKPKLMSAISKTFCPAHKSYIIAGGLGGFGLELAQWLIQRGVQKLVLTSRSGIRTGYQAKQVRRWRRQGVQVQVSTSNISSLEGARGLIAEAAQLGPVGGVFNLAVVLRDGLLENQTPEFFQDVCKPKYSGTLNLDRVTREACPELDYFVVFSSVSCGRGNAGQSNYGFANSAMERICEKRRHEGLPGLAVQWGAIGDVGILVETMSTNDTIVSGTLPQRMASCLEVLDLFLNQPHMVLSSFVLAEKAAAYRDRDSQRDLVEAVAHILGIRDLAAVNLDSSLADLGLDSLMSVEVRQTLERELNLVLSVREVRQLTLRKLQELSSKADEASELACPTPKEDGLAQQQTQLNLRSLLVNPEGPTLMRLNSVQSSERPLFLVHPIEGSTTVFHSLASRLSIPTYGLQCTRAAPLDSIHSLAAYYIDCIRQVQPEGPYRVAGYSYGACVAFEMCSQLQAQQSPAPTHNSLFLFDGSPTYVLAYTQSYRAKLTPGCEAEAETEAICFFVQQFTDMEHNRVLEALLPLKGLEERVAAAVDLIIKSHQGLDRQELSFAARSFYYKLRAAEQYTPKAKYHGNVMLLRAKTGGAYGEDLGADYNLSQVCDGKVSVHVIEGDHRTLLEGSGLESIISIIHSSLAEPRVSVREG

Fatty acid synthase [5] = molecular target: T3, Fatty acid synthase; assay: FAS thioesterase domain inhibitors, dose response, biochemical, kinetic fluorescence intensity (AID 624326); format: functional;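 also: rate of fluorescence rise from hydrolysis of a fluorogenic O-methyl fluorescein ester substrate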
[6] = T. cruzi growth inhibition in host cells, dose response, cell-based, plate reader, dry powder, set 2 (AID 652275); format: functional
[7] = system: Streptococcus sp. 'group A'; assay: growth inhibition of control SK(-) GAS strain, dose response, counter-screen for streptokinase expression inhibitor project, luminescence, kanamycin, BacTiterGlo, confirmation (AID 1900); format: functional, organism-based
Streptococcus = assay: Group A Streptococcus viability loss, dose response, counter-screen for streptokinase expression inhibitor project, luminescence, BacTiterGlo (AID 1915); format: functional, organism-based;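 also: potency for reduction of bacterial viability or growth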
[8] = CEM21 lymphoblast cell cytotoxicity, dose response, cytotoxicity control for viral fusion inhibitor project, CellTiter-Glo luminescence, cherry-picked (AID 652042); format: functional, cell-based;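 also: potency for signal decrease meaning cytotoxicity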
[9] = inhibitors of clade B AD8 Env fusion, dose response, cell-based, cherry-pick (AID 652062); format: functional;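 also: luciferase signal from cell-cell fusion driven by HIV-1 clade B AD8 Env; potency is for inhibitors of fusion seen as a drop in luminescence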
P388/ADR = assay: cells; format: functional; details: Mus musculus
SN12K1 = assay: cells; format: functional; details: Homo sapiens
P388 = assay: cells; format: functional; details: Mus musculus
[10] = molecular target: T4, Histone-lysine N-methyltransferase NSD2 (Homo sapiens, UniProt O96028); format: biochemical
T4 sequence (O96028 whole entry): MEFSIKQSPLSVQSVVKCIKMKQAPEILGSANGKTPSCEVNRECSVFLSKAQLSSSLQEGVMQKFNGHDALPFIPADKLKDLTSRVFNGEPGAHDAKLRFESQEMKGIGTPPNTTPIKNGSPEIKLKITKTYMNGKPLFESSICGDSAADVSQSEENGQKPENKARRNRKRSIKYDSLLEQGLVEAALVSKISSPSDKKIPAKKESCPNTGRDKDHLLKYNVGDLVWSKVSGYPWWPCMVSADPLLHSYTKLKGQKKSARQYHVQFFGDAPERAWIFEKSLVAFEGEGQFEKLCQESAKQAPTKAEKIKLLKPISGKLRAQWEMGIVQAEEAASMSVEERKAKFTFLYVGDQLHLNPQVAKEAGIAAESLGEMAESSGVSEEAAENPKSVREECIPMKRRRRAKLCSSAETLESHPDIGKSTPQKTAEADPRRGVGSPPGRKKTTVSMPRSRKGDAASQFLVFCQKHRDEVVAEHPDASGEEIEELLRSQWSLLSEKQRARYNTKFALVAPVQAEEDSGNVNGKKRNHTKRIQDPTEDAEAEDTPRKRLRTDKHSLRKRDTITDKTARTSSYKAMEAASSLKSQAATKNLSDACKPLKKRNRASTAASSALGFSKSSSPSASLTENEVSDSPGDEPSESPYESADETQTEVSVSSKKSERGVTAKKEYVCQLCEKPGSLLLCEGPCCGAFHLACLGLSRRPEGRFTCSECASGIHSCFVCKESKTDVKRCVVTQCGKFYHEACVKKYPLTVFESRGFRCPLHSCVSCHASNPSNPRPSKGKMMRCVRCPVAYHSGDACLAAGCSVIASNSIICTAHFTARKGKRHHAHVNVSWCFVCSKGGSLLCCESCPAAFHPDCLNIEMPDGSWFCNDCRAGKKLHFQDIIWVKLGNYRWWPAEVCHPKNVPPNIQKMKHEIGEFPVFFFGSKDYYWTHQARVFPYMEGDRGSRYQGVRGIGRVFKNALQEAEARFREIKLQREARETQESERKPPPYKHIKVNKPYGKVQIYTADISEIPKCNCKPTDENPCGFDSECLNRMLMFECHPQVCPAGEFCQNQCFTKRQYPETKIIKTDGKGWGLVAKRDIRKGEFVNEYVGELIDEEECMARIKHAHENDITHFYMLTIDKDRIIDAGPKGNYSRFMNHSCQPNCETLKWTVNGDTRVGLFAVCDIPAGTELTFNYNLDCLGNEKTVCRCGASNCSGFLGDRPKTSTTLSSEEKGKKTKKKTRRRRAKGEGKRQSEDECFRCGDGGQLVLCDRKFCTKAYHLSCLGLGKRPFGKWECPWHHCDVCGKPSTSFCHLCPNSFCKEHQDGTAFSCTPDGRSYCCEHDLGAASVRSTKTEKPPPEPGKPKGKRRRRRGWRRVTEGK

O=C(CN1C(=O)NC2(CCOc3ccccc32)C1=O)c1ccc(Br)cc1 (configuration not stated)
AC50 [1]: 98.9 µM (active)

O=C(Nc1cccc(F)c1)c1cc(S(=O)(=O)N2CCC(C(=O)O)CC2)ccc1F
AC50 [2]: 28.9 µM (active)

Cc1ccc(OCC(=O)N2CCN(Cc3ccc([N+](=O)[O-])cc3)CC2)cc1
IC50 [3]: 163 µM (active)
IC50 (Beta-galactosidase): > 80 µM (inactive)

Cc1ccc2oc(=O)c3cnn(CC(=O)N(Cc4ccco4)C4CCCCC4)c3c2c1
IC50 (Beta-galactosidase): > 80 µM (inactive)

CC1=C(O)C(=O)C(c2c(C)cc(C)c(Br)c2C)=C(O)C1=O
AC50 [1]: 51.8 µM (active)
IC50 (Fatty acid synthase [4]): 10.8 µM (active)
IC50 (Fatty acid synthase [5]): 9.46 µM (active)

CC(C)(C)[S@+]([O-])N1Cc2cc(C(=O)NCc3ccc4c(c3)OCO4)nc(-c3cccc(-c4ccncc4)c3)c2[C@@H]1CCO
AC50 [6]: 0.152 µM (active)

Cc1onc(-c2ccccc2)c1C(=O)NC(=S)NNC(=O)c1ccc(O)cc1
EC50 [7]: 0.547 µM (active)
EC50 (Streptococcus): 9.46 µM (active)
AC50 [8]: 67.3 µM (active)
AC50 [9]: 10.5 µM (active)

COC1C(O)C(C)OC(OC2C(Oc3cccc4c(O)c5c(=O)oc6ccc(C)c7c(=O)oc(c34)c5c67)OC(C)C(O)C2O)C1O (configuration not stated)
GI50 (P388/ADR): 7.08 µM (inactive)
GI50 (SN12K1): 0.593 µM (active)
GI50 (P388): 0.598 µM (active)
AC50 [10]: > 20 µM (inactive)

Reference: ChEMBL document CHEMBL1201862, “PubChem BioAssay data set” (2004)
